Patent publication US20080021015A1, “Use as medicine of a compound restoring active principles in vivo” (DOSPHARMA, priority 2000, published 2008)
Counter-ions that a name gives are not always drawn.

What was measured:
[1] = tested on: rats treated with streptozotocin; experiment: Antidiabetic activity in rats made diabetic with streptozotocin; type: in vivo, rat; details: streptozotocin (50 mg/kg, IP) rats; for hyperglycaemia after treatment: after administration of 30 mg/kg; for hyperglycaemia before treatment: starting value, 30 mg/kg group
Protocol: (§1) The antidiabetic activity was studied, from the pharmacological point of view, on two models of rats made diabetic.
The first model consisted in treating the rats with streptozotocin (50 mg/kg, IP), this being a compound which induces an increase in glycaemia, which increases from 5.5 mM to 12-14 mM in 21 days.

[2] = tested on: rats given fructose at 10% in the drinking water; details: fructose 10% in drinking water, equivalent dose of metformin base
Protocol: as §1
The second study is carried out with the administration of fructose at 10% in the drinking water of the rats.

primary hepatocytes = experiment: In vitro toxicity assay on primary hepatocytes
Protocol: A method for culturing primary hepatocytes over a period of 96 hours is used (see Biochemical Pharmacology, vol. 50, 1995, pp. 775-780). The hepatocytes are isolated in situ by collagen profusion. They are then placed in a Williams medium supplemented with foetal calf serum, with cortisol and with glutamine, in a proportion of 1 million cells per well. Increasing and toxic concentrations of A and C, and of A′ ? […] C′ are then added to each well. Samples are taken up after 6 h, 12 h, 24 h, 48 h and 96 h and the viability of the cells is determined with a methylene blue test, by albumin expression, by hepatocyte apoptosis and by measuring cytochrome P450 activity.

[3] = rat, in vivo, po, 50 mg/kg

arginine hemisuccinimide-metformin hemisuccinate
hyperglycaemia after treatment [1]: 7.56 mM
hyperglycaemia before treatment [1]: 12.66 mM
effects on the microcirculation (hamster cheek pouch): reproduces at least the effects of the two active principles on the microcirculation
antidiabetic activity compared with metformin alone [2]: significantly more active than the metformin alone

CN(C)C(=N)NC(=N)N [metformin, N,N-dimethylimidodicarbonimidic diamide]
toxic dose (primary hepatocytes): 10^−2 M
hyperglycaemia after treatment [1]: 9.85 mM
hyperglycaemia before treatment [1]: 12.11 mM

CN(C)C(=N)N=C(N)N [metformin hydrochloride]
concentration peak [3]: 3900 ng/mL
time of concentration peak [3]: ≤ 90 min
